Experimental data: ChEMBL document CHEMBL5050844 (2019)

How the values were obtained:
Assay type in all cases: functional
[1] = Induction of anti-CD3 antibodies-stimulated human CD8+ T cell activation in immunocompetent mouse assessed fold increase in CD25 expression at 90 mg/kg, ip administered twice a day
[2] = Induction of anti-CD3 antibodies-stimulated human T cell activation in immunocompetent mouse assessed fold increase in TNF-alpha secretion at 90 mg/kg, ip administered thrice a day
[3] = Induction of anti-CD3 antibodies-stimulated human T cell activation in immunocompetent mouse assessed fold increase in IL-2 secretion at 90 mg/kg, ip administered twice a day
[4] = Induction of anti-CD3 antibodies-stimulated human T cell activation in immunocompetent mouse assessed fold increase in IFN-gamma secretion at 90 mg/kg, ip administered thrice a day
[5] = Induction of anti-CD3 antibodies-stimulated human T cell activation in immunocompetent mouse assessed fold increase in IFN-gamma secretion at 90 mg/kg, ip administered twice a day
[6] = Induction of anti-CD3 antibodies-stimulated human T cell activation in immunocompetent mouse assessed fold increase in IL-2 secretion at 90 mg/kg, ip administered thrice a day
[7] = Induction of anti-CD3 antibodies-stimulated human T cell activation in immunocompetent mouse assessed fold increase in TNFalpha secretion at 90 mg/kg, ip administered twice a day
[8] = Induction of anti-CD3 antibodies-stimulated human CD8+ T cell activation in immunocompetent mouse assessed fold increase in CD25 expression at 45 mg/kg, po administered twice a day
Note: reference of the scale not given here.

SMILES	fold change (FC) [1]	fold change (FC) [2]	fold change (FC) [3]	fold change (FC) [4]	fold change (FC) [5]	fold change (FC) [6]	fold change (FC) [7]	fold change (FC) [8]
C[C@@H](Sc1nncn1C)c1cccc(NC(=O)c2cccc(C(F)(F)F)n2)c1	<1	<1	<1	<1	<1	<1	1	
Cc1cc(C(=O)Nc2cccc(C3(Cc4nncn4C)COC3)c2)nc(C2CC2)n1								1
C[C@H](Sc1nncn1C)c1cccc(NC(=O)c2cccc(C(F)(F)F)n2)c1	<1	>2.5	>2.5	2.01	1	>2.5	>2.5	
Cn1cnnc1CC1(c2cccc(N3Cc4c(cc(CN5CCC6(CC6)C5)cc4C(F)(F)F)C3=O)c2)COC1								1
